In test [1] the target is T1, hTP (Homo sapiens, UniProt P21731).
T1 sequence (P21731 1-343): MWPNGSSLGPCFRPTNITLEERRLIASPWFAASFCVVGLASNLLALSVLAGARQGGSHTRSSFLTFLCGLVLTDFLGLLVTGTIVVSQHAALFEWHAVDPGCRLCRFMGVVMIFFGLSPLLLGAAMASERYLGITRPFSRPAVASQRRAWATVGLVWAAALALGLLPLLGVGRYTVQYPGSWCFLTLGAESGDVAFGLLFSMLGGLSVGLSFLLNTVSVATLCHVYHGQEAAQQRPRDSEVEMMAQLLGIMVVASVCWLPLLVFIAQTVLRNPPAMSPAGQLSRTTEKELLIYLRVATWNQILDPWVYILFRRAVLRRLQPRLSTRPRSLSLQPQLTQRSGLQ
Put plainly: Other receptors functional EC50, hTP. In kind it is cell-based. From the text: (§1) U.S. patent application Ser. No. 11/553,143, filed on Oct. 26, 2006, incorporated by reference herein, describes the methods used to obtain the in vitro data in the table below.

Test [2] addresses T2, hDP (Homo sapiens, UniProt Q13258).
T2 sequence (Q13258 1-359): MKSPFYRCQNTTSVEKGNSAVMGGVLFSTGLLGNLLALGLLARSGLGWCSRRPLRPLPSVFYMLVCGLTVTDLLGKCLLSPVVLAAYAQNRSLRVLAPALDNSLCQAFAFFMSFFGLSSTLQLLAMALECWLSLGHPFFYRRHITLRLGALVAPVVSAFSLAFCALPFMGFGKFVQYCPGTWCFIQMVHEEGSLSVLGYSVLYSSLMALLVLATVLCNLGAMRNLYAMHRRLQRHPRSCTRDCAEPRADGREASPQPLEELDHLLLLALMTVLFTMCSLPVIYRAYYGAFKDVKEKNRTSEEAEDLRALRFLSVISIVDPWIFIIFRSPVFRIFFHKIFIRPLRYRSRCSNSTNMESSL
Put plainly: Other receptors functional EC50, hDP. The format is cell-based.
Text: as §1

The target of test [3] is EP2 (Homo sapiens, UniProt P43116). Put plainly: EP2 binding (Ki).
Chain of EP2 (P43116 whole entry): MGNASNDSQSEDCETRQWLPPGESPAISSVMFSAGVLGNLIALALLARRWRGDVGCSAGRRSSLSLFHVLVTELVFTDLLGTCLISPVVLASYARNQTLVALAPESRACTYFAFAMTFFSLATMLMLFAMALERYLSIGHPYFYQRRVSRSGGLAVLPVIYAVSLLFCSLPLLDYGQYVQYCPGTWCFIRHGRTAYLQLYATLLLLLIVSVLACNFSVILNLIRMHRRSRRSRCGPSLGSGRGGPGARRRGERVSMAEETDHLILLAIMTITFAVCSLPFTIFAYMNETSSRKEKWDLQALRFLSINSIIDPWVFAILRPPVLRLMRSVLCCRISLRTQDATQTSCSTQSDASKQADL
Text: as §1

Bounds are passed on as bounds.

For two compounds, EC50 and Ki results are on record in patent publication US7985767B2, “Therapeutic amides” (Allergan, Inc., priority 2006, dated 2011).

Regarding `CCCCCC(O)c1ccc(N(CC#CCCCC(=O)O)C(C)=O)cc1` (stereo not drawn) [7-(N-(4-(1-hydroxyhexyl)phenyl)acetamido)hept-5-ynoic acid], the EC50 (as a rule, the concentration that produces a half-maximal response) in test [1] came to 8.53 µM.
In turn, `CCCCCC(O)c1ccc(N(CCCc2ccc(C(=O)O)s2)C(C)=O)cc1` (stereo not drawn) [5-(-3-(N-(4-(1-hydroxyhexyl)phenyl)acetamido)propyl)thiophene-2-carboxylic acid] had a concentration for a half-maximal effect (EC50) in test [2] of 4.76 µM. In addition, in test [3], the Ki (as a rule, the equilibrium dissociation constant of an inhibitor or competing ligand from its target) was greater than 10 µM.
